The values below are quoted from earlier work in patent publication EP0984012A2, “Nitric oxide releasing oxindole prodrugs with analgesic and anti-inflammatory properties” (Pfizer Products Inc., priority 1998, dated 2000).

The subject of data set [1] is experimental gastric ulcers. The following applies: rat, daily treatment.
The conditions of data set [2]: animal models of acute and chronic inflammation; versus parent NSAID.
The conditions of data set [3]: administered on both an acute and a chronic basis; versus parent NSAID.

In the case of `O=C(O)Cc1ccccc1Nc1c(Cl)cccc1Cl` [diclofenac], in data set [1], the “healing of experimental gastric ulcers” value is listed as “no effect”.
On to `CC(C(=O)OCCCCO[N+](=O)[O-])c1ccc(-c2ccccc2)c(F)c1` (stereo not drawn) [flurbiprofen nitroxybutylester], for which the anti-inflammatory activity entry in data set [2] is listed as “comparable to that of their parent NSAIDs”. The gastric injury result in data set [3] is “markedly less gastric injury than that produced by their parent NSAIDs”. In the data set with small intestine (in vivo), the mitochondrial damage result is listed as “associated with mitochondrial damage in vivo”. Also, the “macroscopic damage in the small intestine” value in the data set on small intestine (rats, versus flurbiprofen) is reported as “significantly less macroscopic damage in the small intestine than flurbiprofen”.
In the case of `O=[N+]([O-])OCC(CO[N+](=O)[O-])O[N+](=O)[O-]` [glyceryl trinitrate], in data set [1], the “healing of experimental gastric ulcers” value was “accelerated”.
Take `CC(C(=O)OCCCCO[N+](=O)[O-])c1cccc(C(=O)c2ccccc2)c1` (stereo not drawn) [ketoprofen nitroxybutylester]: the anti-inflammatory activity entry in data set [2] was “comparable to that of their parent NSAIDs”. For the same compound, the gastric injury entry in data set [3] is reported as “markedly less gastric injury than that produced by their parent NSAIDs”.
On to `COc1ccc2cc(CCC(C)=O)ccc2c1` [nabumetone], for which the “healing of experimental gastric ulcers” value in data set [1] is “no effect”.
Consider `O=C(Cc1ccccc1Nc1c(Cl)cccc1Cl)OCCCCO[N+](=O)[O-]` [nitrofenac, diclofenac-4-nitroxybutylester], for which, in data set [2], the anti-inflammatory activity entry is “comparable to that of their parent NSAIDs”. For the same compound, the gastric injury entry in data set [3] is given as “markedly less gastric injury than that produced by their parent NSAIDs”. Moreover, in data set [1], the “healing of experimental gastric ulcers” value was “accelerated”.
